Ten compounds from ChEMBL document CHEMBL1201862, “PubChem BioAssay data set” (2004) can be followed below.

Structures are written as SMILES. Activity calls are given as the source filed them. Some results are limits rather than exact numbers.

Assay [1] concerns the target T1, Sentrin-specific protease 6 (Homo sapiens, UniProt Q9GZR1).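 Further: Luminescence-based dose-response confirmatory assay of SENP6 inhibition, following up an ultra-high-throughput screen.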
T1 sequence (Q9GZR1 whole entry): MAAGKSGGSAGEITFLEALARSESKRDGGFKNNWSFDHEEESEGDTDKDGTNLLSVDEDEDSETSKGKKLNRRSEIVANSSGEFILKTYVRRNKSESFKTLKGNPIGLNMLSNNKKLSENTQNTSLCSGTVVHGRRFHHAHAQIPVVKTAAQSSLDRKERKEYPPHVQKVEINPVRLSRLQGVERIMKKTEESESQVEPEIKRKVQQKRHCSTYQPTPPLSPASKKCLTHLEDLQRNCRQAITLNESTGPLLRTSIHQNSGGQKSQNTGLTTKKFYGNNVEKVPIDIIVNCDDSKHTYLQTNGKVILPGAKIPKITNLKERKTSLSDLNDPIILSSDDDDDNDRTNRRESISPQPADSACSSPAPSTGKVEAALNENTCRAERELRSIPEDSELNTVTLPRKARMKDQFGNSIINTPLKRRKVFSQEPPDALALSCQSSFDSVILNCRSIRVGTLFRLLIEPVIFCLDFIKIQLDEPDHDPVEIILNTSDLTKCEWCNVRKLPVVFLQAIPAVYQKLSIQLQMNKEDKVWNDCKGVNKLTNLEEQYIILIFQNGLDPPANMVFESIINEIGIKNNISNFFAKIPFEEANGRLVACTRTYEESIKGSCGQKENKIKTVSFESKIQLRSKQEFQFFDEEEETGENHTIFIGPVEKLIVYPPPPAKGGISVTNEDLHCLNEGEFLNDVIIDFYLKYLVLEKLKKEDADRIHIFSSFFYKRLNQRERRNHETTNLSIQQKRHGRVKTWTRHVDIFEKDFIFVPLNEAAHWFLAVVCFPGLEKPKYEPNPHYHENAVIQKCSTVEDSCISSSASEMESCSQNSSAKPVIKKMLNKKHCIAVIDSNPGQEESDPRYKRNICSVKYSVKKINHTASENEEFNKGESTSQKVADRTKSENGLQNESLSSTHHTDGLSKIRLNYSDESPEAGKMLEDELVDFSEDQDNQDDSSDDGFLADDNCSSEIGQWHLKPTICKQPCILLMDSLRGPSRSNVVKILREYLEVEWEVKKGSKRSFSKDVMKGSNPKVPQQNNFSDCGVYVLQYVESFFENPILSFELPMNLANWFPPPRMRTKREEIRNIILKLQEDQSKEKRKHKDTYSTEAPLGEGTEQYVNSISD
It counts as functional.

A further assay has as its target T2, Caspase-3 (Homo sapiens, UniProt P42574).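 Further: Dose-response selectivity test against caspase-3 for candidate inhibitors of sentrin-specific proteases (SENPs).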
T2 sequence (P42574 whole entry): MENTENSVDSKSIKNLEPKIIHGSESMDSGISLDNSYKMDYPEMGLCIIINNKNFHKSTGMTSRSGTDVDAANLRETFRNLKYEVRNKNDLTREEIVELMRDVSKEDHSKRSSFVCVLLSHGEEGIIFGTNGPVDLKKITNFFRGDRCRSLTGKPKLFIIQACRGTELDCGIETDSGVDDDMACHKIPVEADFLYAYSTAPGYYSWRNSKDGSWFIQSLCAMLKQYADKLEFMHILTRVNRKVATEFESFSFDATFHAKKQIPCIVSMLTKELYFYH
It counts as functional.

The next assay concerns the target Cytochrome P450 3A4 (Homo sapiens, UniProt P08684).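 Further: CYP3A4 tested as one member of a cytochrome P450 panel screen.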
In assay [2] the target is T3, Sentrin-specific protease 7 (Homo sapiens, UniProt Q9BQF6).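 Further: Luminescence-based dose-response confirmation of ultra-high-throughput screening hits, measuring inhibition of SENP7.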
T3 sequence (Q9BQF6 whole entry): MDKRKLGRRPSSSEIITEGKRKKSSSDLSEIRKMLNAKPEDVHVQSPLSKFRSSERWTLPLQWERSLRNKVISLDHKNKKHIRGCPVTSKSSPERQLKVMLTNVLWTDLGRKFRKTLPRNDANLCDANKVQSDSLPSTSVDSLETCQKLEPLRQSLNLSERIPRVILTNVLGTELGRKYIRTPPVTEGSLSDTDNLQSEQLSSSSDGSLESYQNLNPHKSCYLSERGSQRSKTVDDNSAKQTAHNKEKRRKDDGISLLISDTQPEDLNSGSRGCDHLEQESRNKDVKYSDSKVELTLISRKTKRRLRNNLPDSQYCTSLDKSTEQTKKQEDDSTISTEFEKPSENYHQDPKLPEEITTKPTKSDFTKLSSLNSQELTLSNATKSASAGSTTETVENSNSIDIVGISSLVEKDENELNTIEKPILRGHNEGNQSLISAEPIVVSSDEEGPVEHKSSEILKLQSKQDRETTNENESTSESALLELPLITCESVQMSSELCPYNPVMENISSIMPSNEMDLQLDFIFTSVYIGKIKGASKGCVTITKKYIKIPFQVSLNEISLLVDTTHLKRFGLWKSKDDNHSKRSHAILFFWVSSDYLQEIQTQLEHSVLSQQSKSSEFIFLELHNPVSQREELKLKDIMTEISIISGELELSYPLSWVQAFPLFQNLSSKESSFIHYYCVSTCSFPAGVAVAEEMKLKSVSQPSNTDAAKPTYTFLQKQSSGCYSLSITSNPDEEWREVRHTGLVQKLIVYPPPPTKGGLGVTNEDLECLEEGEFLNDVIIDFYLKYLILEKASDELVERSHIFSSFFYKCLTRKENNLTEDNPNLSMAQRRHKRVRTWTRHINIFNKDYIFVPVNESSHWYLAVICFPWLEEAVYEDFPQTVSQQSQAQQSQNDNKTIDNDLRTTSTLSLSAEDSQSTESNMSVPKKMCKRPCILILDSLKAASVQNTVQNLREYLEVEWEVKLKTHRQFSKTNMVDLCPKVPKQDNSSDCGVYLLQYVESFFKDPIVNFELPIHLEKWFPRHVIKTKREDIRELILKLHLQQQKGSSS
It counts as functional.

The target in assay [3] is T4, Sentrin-specific protease 8 (Homo sapiens, UniProt Q96LD8).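 Further: luminescence read-out of SENP8 inhibition, dose-response confirmation following an ultra-high-throughput screen.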
T4 sequence (Q96LD8 whole entry): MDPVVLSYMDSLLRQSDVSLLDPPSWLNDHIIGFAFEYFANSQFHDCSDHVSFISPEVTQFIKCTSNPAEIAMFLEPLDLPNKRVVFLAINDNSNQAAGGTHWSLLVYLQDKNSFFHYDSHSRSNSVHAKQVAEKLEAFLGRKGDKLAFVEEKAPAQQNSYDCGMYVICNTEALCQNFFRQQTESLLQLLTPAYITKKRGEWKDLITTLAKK
Type of assay: functional.

For assay [4], the system named is Streptococcus sp. 'group A'. The assay can be described thus: growth inhibition of control SK(-) GAS strain, dose response, counter-screen for streptokinase expression inhibitor project, luminescence, kanamycin, BacTiterGlo, confirmation (AID 1900). Type of assay: functional, organism-based.
The next assay has as its target T5, Streptokinase A (Streptococcus pyogenes serotype M1, UniProt P10520).
T5 sequence (P10520 whole entry): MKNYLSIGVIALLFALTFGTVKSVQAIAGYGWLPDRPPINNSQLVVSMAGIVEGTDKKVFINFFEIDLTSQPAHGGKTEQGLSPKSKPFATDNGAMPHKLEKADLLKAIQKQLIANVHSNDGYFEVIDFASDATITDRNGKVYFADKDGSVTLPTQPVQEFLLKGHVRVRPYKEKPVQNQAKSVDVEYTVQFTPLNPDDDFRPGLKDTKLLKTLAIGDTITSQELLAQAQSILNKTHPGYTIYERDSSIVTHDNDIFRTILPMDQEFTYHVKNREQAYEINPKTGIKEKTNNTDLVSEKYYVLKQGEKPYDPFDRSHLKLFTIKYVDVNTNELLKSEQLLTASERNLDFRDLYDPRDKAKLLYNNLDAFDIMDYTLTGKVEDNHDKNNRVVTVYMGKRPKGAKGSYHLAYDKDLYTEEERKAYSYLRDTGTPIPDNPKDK
Nature of the assay: S. pyogenes streptokinase expression inhibitors, potency, dose response, plasminogen activation absorbance, OD405 (AID 1914).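 Further: secreted streptokinase activity via plasminogen activation per viability signal from cell pellet.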 It counts as functional, Streptococcus pyogenes M1 GAS.

A further assay has as its target Cytochrome P450 2D6 (Homo sapiens, UniProt P10635).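 Further: CYP2D6 member of a cytochrome P450 panel assay.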
A further assay relates to Streptococcus. The assay can be described thus: Group A Streptococcus viability loss, dose response, counter-screen for streptokinase expression inhibitor project, luminescence, BacTiterGlo (AID 1915).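 Further: potency for reduction of bacterial viability or growth.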 Type of assay: functional, organism-based.
Assay [5] addresses T6, Polyadenylate-binding protein 1 (Homo sapiens, UniProt P11940). Nature of the assay: PABP1 MLLE–PAM2 interaction inhibitors, dose response, miRNA deadenylation inhibitor project, biochemical, fluorescence polarization, Cy5-PAM2 peptide, secondary (AID 602260). Type of assay: functional. The conditions noted are these: read-out: IC50_Mean.
Assay [6] has as its target T6, Polyadenylate-binding protein 1. Nature of the assay: PABP1 MLLE–PAM2 binding inhibitor potency, dose response, biochemical, fluorescence polarization, FITC-PAM2 peptide (AID 602259). It counts as functional. The note with it: read-out: IC50_Mean.
Another assay has as its target T7, Protein skinhead-1 (Caenorhabditis elegans, UniProt P34707).
T7 sequence (P34707 whole entry): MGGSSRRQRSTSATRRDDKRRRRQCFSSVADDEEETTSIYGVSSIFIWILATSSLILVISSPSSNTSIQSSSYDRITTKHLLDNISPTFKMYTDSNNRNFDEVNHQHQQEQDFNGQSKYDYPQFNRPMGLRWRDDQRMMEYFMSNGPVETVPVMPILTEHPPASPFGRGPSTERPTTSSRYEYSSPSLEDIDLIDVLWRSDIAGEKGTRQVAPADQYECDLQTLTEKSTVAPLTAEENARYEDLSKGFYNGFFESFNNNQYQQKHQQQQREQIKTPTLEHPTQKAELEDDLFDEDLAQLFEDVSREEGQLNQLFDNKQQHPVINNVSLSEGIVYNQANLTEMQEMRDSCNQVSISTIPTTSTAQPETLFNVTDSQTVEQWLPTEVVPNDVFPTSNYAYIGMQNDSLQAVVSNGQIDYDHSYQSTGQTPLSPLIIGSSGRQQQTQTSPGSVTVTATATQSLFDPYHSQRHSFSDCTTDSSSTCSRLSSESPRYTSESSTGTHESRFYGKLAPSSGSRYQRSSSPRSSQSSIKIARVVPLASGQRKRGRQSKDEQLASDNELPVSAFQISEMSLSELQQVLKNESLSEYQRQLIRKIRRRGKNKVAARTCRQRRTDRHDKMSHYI
It counts as functional.

The test system of assay [7] is BJ. Nature of the assay: cells. Type of assay: functional, cell-based, Homo sapiens. The conditions noted are these: Homo sapiens, BJ.
The subject of assay [8] is BJ. The assay can be described thus: cytotoxicity toward BJ-TERT fibroblasts, dose response, cell-based, RAS-independent, luminescence (AID 1933). It counts as functional. The note with it: Homo sapiens.
Assay [9] is described as follows: cytotoxicity toward DRD oncogenic fibroblasts, dose response, cell-based, non-viral oncogenic, luminescence (AID 1934). It counts as functional. The note with it: Homo sapiens.
Assay [10] has as its system BJ. Nature of the assay: cytotoxicity toward BJ-TERT-LT-ST fibroblasts, dose response, cell-based, RAS-independent, luminescence (AID 1935).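 Further: BJ fibroblasts immortalized with TERT plus LT and ST oncogenes.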 Type of assay: functional. The note with it: Homo sapiens.
The nature of assay [11]: Luminescence Cell-Based Dose Response HTS to Identify Activators of Luciferase Translation or Activity in H4 […] Cells. [Related pubchem assays: 1829 (Project Summary), 1814 (Primary HTS)]. It counts as functional.
Assay [12] is described as follows: Luminescence Cell-Based Dose Confirmation HTS to Identify Activators of 5'UTR Stem-Loop Driven Alpha-Synuclein mRNA Translation in H4 Neuroglioblastoma Cells. [Related pubchem assays: 1829 (Project Summary), 1814 (Primary HTS)]. It counts as functional.
The next assay relates to H4. Nature of the assay: Luminescence Cell-Based Dose Response HTS to Identify Activators of 5'UTR Stem-Loop Driven Prion Protein mRNA Translation in H4 Neuroglioblastoma Cells. [Related pubchem assays: 1829 (Project Summary), 1814 (Primary HTS)]. Type of assay: functional. The note with it: Homo sapiens.
Assay [13] can be described thus: NIH-3T3 fibroblast cytotoxicity, dose response, cytotoxicity control, cell-based, fluorescence, Alamar Blue, secondary assay (AID 2327).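 Further: NIH-3T3 mouse fibroblasts cultured with fluconazole at 8 µg/mL.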 It counts as functional.

T6 sequence (P11940 whole entry): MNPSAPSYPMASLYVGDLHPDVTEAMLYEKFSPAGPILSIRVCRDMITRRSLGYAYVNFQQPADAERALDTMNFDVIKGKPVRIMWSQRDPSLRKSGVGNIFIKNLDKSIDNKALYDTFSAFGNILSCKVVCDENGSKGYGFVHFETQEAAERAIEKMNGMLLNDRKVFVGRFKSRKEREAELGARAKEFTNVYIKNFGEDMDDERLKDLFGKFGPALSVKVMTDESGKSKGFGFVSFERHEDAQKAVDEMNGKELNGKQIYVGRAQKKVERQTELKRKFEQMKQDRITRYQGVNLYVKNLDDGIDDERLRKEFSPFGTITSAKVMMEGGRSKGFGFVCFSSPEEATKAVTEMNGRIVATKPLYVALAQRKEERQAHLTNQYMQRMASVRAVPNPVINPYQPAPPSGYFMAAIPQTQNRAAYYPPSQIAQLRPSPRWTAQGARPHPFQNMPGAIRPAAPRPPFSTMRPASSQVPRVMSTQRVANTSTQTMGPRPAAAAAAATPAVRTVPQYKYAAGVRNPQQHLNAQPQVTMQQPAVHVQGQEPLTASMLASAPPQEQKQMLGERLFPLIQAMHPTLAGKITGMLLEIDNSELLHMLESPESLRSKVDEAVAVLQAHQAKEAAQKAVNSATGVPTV
Cytochrome P450 2D6, sequence (P10635 whole entry): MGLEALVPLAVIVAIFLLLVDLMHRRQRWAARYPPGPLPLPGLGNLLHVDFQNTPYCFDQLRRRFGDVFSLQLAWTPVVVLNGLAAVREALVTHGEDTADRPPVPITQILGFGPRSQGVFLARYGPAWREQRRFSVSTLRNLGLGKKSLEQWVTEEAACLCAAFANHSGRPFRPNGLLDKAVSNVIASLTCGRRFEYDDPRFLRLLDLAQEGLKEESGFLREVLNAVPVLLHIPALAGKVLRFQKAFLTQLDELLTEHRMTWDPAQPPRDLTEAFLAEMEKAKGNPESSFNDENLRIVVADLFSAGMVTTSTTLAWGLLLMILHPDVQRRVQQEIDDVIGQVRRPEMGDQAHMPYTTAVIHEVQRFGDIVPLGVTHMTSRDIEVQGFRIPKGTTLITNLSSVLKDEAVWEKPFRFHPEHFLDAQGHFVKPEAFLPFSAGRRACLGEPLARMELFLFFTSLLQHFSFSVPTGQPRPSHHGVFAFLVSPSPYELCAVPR
Cytochrome P450 3A4, sequence (P08684 whole entry): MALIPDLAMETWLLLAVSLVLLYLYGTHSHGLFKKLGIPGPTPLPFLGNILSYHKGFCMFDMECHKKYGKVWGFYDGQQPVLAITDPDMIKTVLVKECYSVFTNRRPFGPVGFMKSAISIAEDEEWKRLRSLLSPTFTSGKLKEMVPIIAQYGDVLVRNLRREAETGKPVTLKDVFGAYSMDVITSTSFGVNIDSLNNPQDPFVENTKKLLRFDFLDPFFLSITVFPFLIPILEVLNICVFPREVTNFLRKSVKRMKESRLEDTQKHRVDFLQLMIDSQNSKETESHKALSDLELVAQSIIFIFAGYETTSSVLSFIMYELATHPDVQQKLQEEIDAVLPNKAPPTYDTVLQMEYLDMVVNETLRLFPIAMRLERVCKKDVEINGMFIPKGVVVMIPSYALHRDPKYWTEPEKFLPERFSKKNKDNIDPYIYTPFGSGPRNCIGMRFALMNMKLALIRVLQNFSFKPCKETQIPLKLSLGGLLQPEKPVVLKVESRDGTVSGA

As to `N=C1/C(=C/c2cccs2)C(=O)N=C2SN=C(SCc3ccccc3)N12`, the IC50 was 11.1 µM (active) in assay [1], 50.3 µM (active) on Caspase-3, 27.7 µM (active) in [2] and 32.6 µM (active) in assay [3]. Also, the AC50 was 14.1 µM (inconclusive) at Cytochrome P450 3A4 and 25.1 µM (inconclusive) on Cytochrome P450 2D6. Further, the EC50 in assay [4] is 3.65 µM (active); at Streptokinase A, 5.78 µM (active); in the assay on Streptococcus, 30 µM (active).

Consider `Cc1nc(NC(=S)NC(=O)c2ccccc2)sc1C(=O)N(C)C`, for which the IC50 in assay [5] and in assay [6] was > 66 µM (inactive) each time.

`c1ccc2nc(-c3ccc(-n4ccnc4)cc3)ccc2c1`: the IC50 was 10.8 µM (active) in [1]; 8.83 µM (active) on Caspase-3; 7.87 µM (active) at Protein skinhead-1; 5.47 µM (active) in [2]; 13.1 µM (active) in [3].

As for `O=CNc1ccc2c3c(cccc13)-c1ccccc1-2`, the IC50 in [5] was 33.1 µM (inactive); in [6] it was 37.1 µM (inactive).

For the compound `CCOC(=O)c1ccc(Nc2sc(C(=O)c3cccc([N+](=O)[O-])c3)c(N)c2C#N)cc1`, the EC50 in the assay on BJ [7] is 92.4 µM (inconclusive); in the assay on BJ [8] it was > 150 µM (not active); in assay [9] it was 136 µM (inconclusive); with BJ [10] it was 97.4 µM (active).

For the compound `O=C(NN=Cc1sc(=O)[n-]c1-[n+]1ccccc1)c1ccccc1O`, the IC50 in assay [5] was > 66 µM (inactive); in assay [6] it was 35.2 µM (inactive).

Consider `CCCc1nc2ccc(Cl)cn2c1Cc1ccsc1`, for which the IC50 was 51.2 µM (inactive) in assay [5] and 59.3 µM (inactive) in assay [6].

As for `CCN(CC)S(=O)(=O)c1ccc2c(c1)nc(SCn1nnc3ccccc3c1=O)n2CC`, the IC50 in [5] and in [6] was > 66 µM (inactive) in each case.

Take `CCSc1nsc(NC(=O)Nc2ccccc2F)n1`: the IC50 was > 100 µM (inactive) in assay [1], 29 µM (active) at Caspase-3, 5.95 µM (active) in assay [2] and 6.84 µM (active) in assay [3]. The EC50 in assay [11] was 20.4 µM (active); in assay [12], 0.283 µM (active); in the assay on H4, 16.1 µM (inconclusive).

Take `O=C(Nc1nc(=O)c2ccccc2s1)c1ccccc1`: the IC50 is 60.6 µM (active) in assay [1], 4.38 µM (active) on Caspase-3, 6.3 µM (active) in assay [2] and > 100 µM (inactive) in [3]. Also, the EC50 in assay [13] is 63.1 µM (active).
